Source: patent US6417235B2, “Method and use of α-amino-β-mercapto-ethane derivatives as dicarbonyl scavengers for treatment of conditions resulting from protein, lipid, and DNA damage” (University of Kentucky Research Foundation, priority 2000, dated 2002)

Test system: glycation of histone H1 by ADP-ribose
Test: Screening of inhibitors of nonoxidative advanced glycation: AGE-fluorescence on 96 well-microtiter plate
Format: biochemical, calf
Settings: (± SEM, n = 2); for AGE-fluorescence (day 5): complete reaction under air
Description: All operations were carried out at 4° C. Chromatin was isolated from fresh calf thymus by extraction with 0.14 M NaCl, 0.05 M Na2S2O5, as described earlier in Wondrak supra. After repeated extraction with 5% HCl)4 and centrifugation (1500 g), histone H1 was precipitated from the supernatant by addition of TCA (20% final concentration v/v). The histone H1 precipitate was colleted by centrifugation (12,000 g) and deionized water. After extensive dialysis (MW cut-off: 12,000-14,000) against water for 48 h, the sample was lyophilized and the protein was stored at 4° C. SDS-PAGE (12%) was used to analyze the purity of the preparation.
Earlier studies have reported that D-penicillamine inhibits collagen crosslinking and AGE fluorescence caused by sugars (McPherson, J. D., Shilton, B. H., and Walton, D. J. 1988. Role of Fructose in Glycation and Cross-Linking of Proteins. Biochemistry 27, 1901-1907) and reaction of D-penicillamine with aldehyde groups of proteins (Deshmukh, K., and Nimm, M. E. 1969. A Defect in the Intramolecular and Intermolecular Cross-linking of Collagen caused by Penicillamine. J. Biol. Chem. 244, 1787-1795). A number of different penicillamines and penicillamine derivatives were tested to determine the inhibition of AGE-fluorescence on histone H1 at physiological pH. The reaction conditions for the glycation of histone H1 by ADP-ribose mimic physiological conditions to the extent possible. Reaction mixtures contain 1.5 mg/ml histone Hl, 1.0 mM ADP-ribose, 50 mM potassium phosphate buffer, pH 7.4, 37° C. D,L-penicillamine; L-penicillamine; D-penicllamine; D-penicillaminedisulfide and N,S- isopropylidine-D-penicillamine were tested in concentrations of 1,5 and 10 mM. The detected reaction parameter representing the accumulation of protein damage is AGE-fluorescence ((λex=[…]), which is suppressed by the presence of a compound with inhibitory activity. Generation of AGE-type fluorescence (λex=355 nm; λem=405 nm) was monitored over time at 37° C; which is in the range of the broad excitation/emission maxima of AGE compounds. To allow high throughput sample processing on 96 well microtiter plates, the reaction volumes are 300 μl. Fluorescence on the 96-well microtiter plates was measured using an automated microtiter fluorescence reader. Fluorescence of the 1 ml samples of the glycation reaction mixtures was measured using a Hitachi F-200 fluorescence spectophotometer, and prior to measurement the protein sample is dialyzed extensively against water (MW cutoff=[…]), lyophilized and reconstituted in reaction buffer. For inhibitor screening the plate is read on a Fluoroskan II plate reader (Titertek, ICN) at the excitation/emission wavelengths set forth above at a bandwidth of 35 nm.
The following screening scheme is used (see Table 1): AGE-fluorescence is determined at the beginning and after five days of incubation. Test compounds that are inherently fluorescent (designated false negatives) were identified by the initial fluorescence measurement (See Table 1, NADH for example). Since these are compounds of uncertain activity, they are diverted directly to the second stage of the screen. Aminoguanidine, a known glycation inhibitory agent, was used as a positive control for suppression of the increase on AGE-fluorescence. After five days incubation and plate reading, fluorescence quenchers (designated false positives) are excluded by measuring the quenching activity of the test compound by addition of AGE modified protein having known fluorescence activity to one microtiter plate well containing test compound in the complete reaction mixture. For this, AGE-BSA is used as the AGE-type fluorescence standard. This AGE-BSA test excludes false positives compounds that function by fluorescence quenching. If fluorescence quenching occurs the test compound is excluded from further screening. […] The protein is visualized by silver staining of the gel. […]

## CC(C)(S)[C@@H](N)C(=O)O [D-Penicillamine]
Compound 1 mM
  AGE-fluorescence (day 0): 1.2 (0.0) relative units
  AGE-fluorescence (day 5): 11 (0.6) relative units
Compound 5 mM
  AGE-fluorescence (day 0): 1.1 (0.1) relative units
  AGE-fluorescence (day 5): 2.9 (0.3) relative units
Compound 10 mM
  AGE-fluorescence (day 0): 1.1 (0.0) relative units
  AGE-fluorescence (day 5): 1.4 (0.1) relative units
